Data from patent US8258186B2, “Pharmaceutical for oral delivery comprising MGBG” (Pathologica, LLC, priority 2009, dated 2012).

Assays:
[1] = Rat single-dose pharmacokinetics; type: in vivo, Sprague Dawley rats
Method: Eighteen male Sprague Dawley rats (Charles River) weighing 217-263 g and aged 8-9 weeks were administered the test article, MGBG as either a single bolus intravenous dose of 1 mg/kg (Group 1) or as a single oral gavage dose of 10 mg/kg. A cohort of three animals was sacrificed via CO2 inhalation anaesthesia after final blood collection at each of T=2, 4, 12, 24, 36, and 48 hours post-dose. Dose formulation analysis verified administered dose solutions as within 17% of targeted concentration of 10 mg/kg.
Analysis was performed by LC/MS/MS. Pharmacokinetic analyses were performed on the mean MGBG plasma concentration versus time data using the non-compartmental approach (linear trapezoidal rule for AUC calculations). The WinNonlin sparse sampling tool was used for PK calculations. All samples reported as BQL (Below the Limit of Quantitation, in plasma 2.50 ng/mL) were changed to 0.00 ng/mL for the purpose of analysis.

[2] = Multi-species allometric scaling, predicted pharmacokinetic parameters in humans; details: predicted human, based on Mouse, Dog, Rhesus
From the text: Multi-species allometric scaling based on pharmacokinetic parameters disclosed in Tables 2 and 3 was employed to calculate predicted pharmacokinetic parameters in humans according to methods known in the art. See, e.g., Ings R M, “Interspecies scaling and comparisons in drug development and toxicokinetics,” Xenobiotica, 1990 November; 20(11):1201-31 and Khor, S P et al., “Dihydropyrimidine dehydrogenase inactivation and 5-fluorouracil pharmacokinetics: allometric scaling of animal data, pharmacokinetics and toxicodynamics of 5-fluorouracil in humans,” Cancer Chemother Pharmacol (1997) 39(3): 833-38. Expected values are given below in Tables 6 and 7.

[3] = Mouse single-dose pharmacokinetics; type: in vivo, DBA/1 mice; details: for AUC / Cmax: plasma
Method: Twenty-four male DBA/1 mice weighing 19.5-24.7 g and aged 7-9 weeks administered the test article, MGBG, as either a single bolus intravenous dose via a lateral tail vein of 1 mg/kg (Group 1, n=12) or as a single oral gavage dose of 10 mg/kg (Group 2, n=12). Each dose group consisted of 4 cohorts of 3 animals each. Group 1 was sampled at 5, 15, and 30 minutes after dosing; and 1, 2, 4, 8, and 24 hours after dosing. Group 2 was sampled at 1, 2, 4, 8, 12, 24, and 36 hours after dosing. Starting with the first time point, a new cohort was sampled at each successive time point up to the 1-hour (Group 1) or 12-hour (Group 2) time point. The order of sampling among the cohorts was repeated for the subsequent time points (some cohorts may have been bled only once). The second bleed for each cohort was terminal. Animals were sacrificed via CO2 inhalation anaesthesia after final blood collection.
The samples were centrifuged under refrigerated conditions following completion of sample collection at each interval. The resulting plasma was separated and stored frozen at approximately −70° C. until analysis. Analysis was performed by LC/MS/MS. Pharmacokinetic analyses were performed on the mean MGBG plasma concentration versus time data using the non-compartmental approach (linear trapezoidal rule for AUC calculations). The WinNonlin sparse sampling tool was used for PK calculations.

[4] = male, Sprague Dawley, plasma, single bolus IV 1 mg/kg, mean
[5] = male, Sprague Dawley, plasma, single oral gavage 10 mg/kg, mean
[6] = male, Sprague Dawley, single bolus IV 1 mg/kg, plasma, mean
[7] = single oral gavage 10 mg/kg, mean
[8] = male, DBA/1, plasma, single bolus IV 1 mg/kg, mean
[9] = male, DBA/1, plasma, single oral gavage 10 mg/kg, mean
[10] = male, DBA/1, single bolus IV 1 mg/kg, mean
[11] = male, DBA/1, single oral gavage 10 mg/kg, mean

CC(/C=N/NC(=N)N)=N\NC(=N)N [MGBG, 1,1′[methylethanediylidene]dinitrilodiguanidine]
clinical findings ([1]; following dosing): Abnormal clinical findings were not noted
bioavailability ([1]; male, Sprague Dawley, plasma, oral 10 mg/kg vs IV 1 mg/kg): 11.6%
Tmax [1, 4]: 0.083 h
half-life [1, 4]: 17.4 h
Tmax [1, 5]: 4.67 h
half-life [1, 5]: 28.1 h
AUC [1, 6]: 1250 ng·h/mL
Cmax [1, 6]: 684 ng/mL
AUC ([1]; male, Sprague Dawley, single oral gavage 10 mg/kg, AUCall, time zero to last plasma concentration measurement): 1280 ng·h/mL
Cmax ([1]; male, Sprague Dawley, single oral gavage 10 mg/kg, plasma, mean): 55.8 ng/mL
time point through which MGBG levels in plasma were measurable ([1]; single PO 10 mg/kg, beyond that certain samples BLQ): 12 h
Clobs ([1]; single bolus IV 1 mg/kg, mean): 13.4 mL/min/kg
VSSobs ([1]; single bolus IV 1 mg/kg, mean): 15.4 L/kg
Clobs [1, 7]: 3.18 mL/min/kg
VSS ([2]; IV): 9.1 L/kg
t1/2 ([2]; IV): 13.3 h
t1/2 ([2]; IV, Rat): 13.4 h
CL ([2]; ORAL): 20.9 mL/min/kg
t1/2 ([2]; ORAL): 23.0 h
t1/2 ([2]; ORAL, Rat): 23.3 h
systemic plasma MGBG exposure ([3]; following IV and PO administration): observed at all collected plasma time points
clinical findings ([3]; following dosing): Abnormal clinical findings were not noted
bioavailability ([3]; male, DBA/1, plasma, oral 10 mg/kg vs IV 1 mg/kg): 44.3%
Tmax [3, 8]: 0.083 h
half-life [3, 8]: 13 h
Tmax [3, 9]: 1 h
half-life [3, 9]: 11.8 h
AUC [3, 10]: 336 ng·h/mL
Cmax [3, 10]: 181 ng/mL
AUC [3, 11]: 1420 ng·h/mL
Cmax [3, 11]: 106 ng/mL
Clobs ([3]; single bolus IV 1 mg/kg, mean): 49.6 mL/min/kg
VSSobs ([3]; single bolus IV 1 mg/kg, mean): 38.3 L/kg
Clobs [3, 7]: 6.68 mL/min/kg
